Experimental data published in ChEMBL document CHEMBL3885881, “DrugMatrix”.

Species on record: Rattus norvegicus
Assay: DrugMatrix - Regimen: Daily Repeat
Format: toxicity, organism-based, Sprague-Dawley
Parameters: regimen Daily Repeat, gender Male, age 6-8 weeks
Details: in vivo, po, 80 mg/kg, route oral GAVAGE, dose level High, vehicle .5 % CMC; for ABSOLUTE BASOPHIL / ABSOLUTE EOSINOPHIL / ABSOLUTE LYMPHOCYTE / ABSOLUTE MONOCYTE / ABSOLUTE SEGMENTED NEUTROPHIL / BASOPHIL / EOSINOPHIL / ERYTHROCYTE COUNT / HEMATOCRIT / HEMOGLOBIN / LEUKOCYTE COUNT / LYMPHOCYTE / MEAN CORPUSCULAR HEMOGLOBIN / MEAN CORPUSCULAR HEMOGLOBIN CONCENTRATION / MEAN CORPUSCULAR VOLUME / MONOCYTE / NEUTROPHIL / PLATELET COUNT: tissue Blood; for ALANINE AMINOTRANSFERASE / ALBUMIN / ALKALINE PHOSPHATASE / ASPARTATE AMINOTRANSFERASE / BLOOD UREA NITROGEN / CHLORIDE / CHOLESTEROL / CREATINE PHOSPHOKINASE / CREATININE / GLUCOSE / LACTATE DEHYDROGENASE / LIPASE / PHOSPHORUS / POTASSIUM / SODIUM / TOTAL BILIRUBIN / TOTAL PROTEIN / URIC ACID: tissue Plasma

Work on `O=c1cc(-c2ccccc2)oc2c1ccc1ccccc12` [ALPHA-NAPHTHOFLAVONE] yielded an ABSOLUTE BASOPHIL (120 h, time 5 day) of 170 cells/µL, an ABSOLUTE EOSINOPHIL (120 h, time 5 day) of 42.5 cells/µL and an ABSOLUTE LYMPHOCYTE (120 h, time 5 day) of 11500 cells/µL. The ABSOLUTE MONOCYTE (120 h, time 5 day) was 230 cells/µL, the ABSOLUTE SEGMENTED NEUTROPHIL (120 h, time 5 day) was 1790 cells/µL and the BASOPHIL (120 h, time 5 day) was 1.35%. The EOSINOPHIL (120 h, time 5 day) was 0.35%, the “ERYTHROCYTE COUNT” value (120 h, time 5 day) was 7.43 x10E6/uL and the HEMATOCRIT (120 h, time 5 day) was 46.52%. The HEMOGLOBIN (120 h, time 5 day) was 15.82 G/DL, the “LEUKOCYTE COUNT” value (120 h, time 5 day) was 13.81 x10E3/uL and the LYMPHOCYTE (120 h, time 5 day) was 82.92%. For the same compound, the “MEAN CORPUSCULAR HEMOGLOBIN” value (120 h, time 5 day) was 21.35 pg, the “MEAN CORPUSCULAR HEMOGLOBIN CONCENTRATION” value (120 h, time 5 day) was 34.08 G/DL and the “MEAN CORPUSCULAR VOLUME” value (120 h, time 5 day) was 62.67 fL. The MONOCYTE (120 h, time 5 day) was 1.57%, the NEUTROPHIL (120 h, time 5 day) was 13.3% and the “PLATELET COUNT” value (120 h, time 5 day) was 1518.75 x10E3/uL. For the same compound, the “ALANINE AMINOTRANSFERASE” value (120 h, time 5 day) was 31.25 u/L, the ALBUMIN (120 h, time 5 day) was 3.65 G/DL and the “ALKALINE PHOSPHATASE” value (120 h, time 5 day) was 212.25 u/L. The “ASPARTATE AMINOTRANSFERASE” value (120 h, time 5 day) was 78.25 u/L, the “BLOOD UREA NITROGEN” value (120 h, time 5 day) was 9.25 mg/dL and the CHLORIDE (120 h, time 5 day) was 108 MEQ/L. The CHOLESTEROL (120 h, time 5 day) was 61 mg/dL, the “CREATINE PHOSPHOKINASE” value (120 h, time 5 day) was 190.25 u/L and the CREATININE (120 h, time 5 day) was 0.53 mg/dL. For the same compound, the GLUCOSE (120 h, time 5 day) was 111 mg/dL, the “LACTATE DEHYDROGENASE” value (120 h, time 5 day) was 112.75 u/L and the LIPASE (120 h, time 5 day) was 16.75 u/L. It also gave a PHOSPHORUS (120 h, time 5 day) of 12.3 mg/dL, a POTASSIUM (120 h, time 5 day) of 6.75 MEQ/L and an SODIUM (120 h, time 5 day) of 151.5 MEQ/L. For the same compound, the “TOTAL BILIRUBIN” value (120 h, time 5 day) was 0.23 mg/dL, the “TOTAL PROTEIN” value (120 h, time 5 day) was 6.07 G/DL and the “URIC ACID” value (120 h, time 5 day) was 0.72 mg/dL. For the same compound, the ABSOLUTE BASOPHIL (2184 h, time 91 day) was 340 cells/µL, the ABSOLUTE EOSINOPHIL (2184 h, time 91 day) was 100 cells/µL and the ABSOLUTE LYMPHOCYTE (2184 h, time 91 day) was 10400 cells/µL. For the same compound, the ABSOLUTE MONOCYTE (2184 h, time 91 day) was 180 cells/µL, the ABSOLUTE SEGMENTED NEUTROPHIL (2184 h, time 91 day) was 1510 cells/µL and the BASOPHIL (2184 h, time 91 day) was 2.59%. The EOSINOPHIL (2184 h, time 91 day) was 0.83%, the “ERYTHROCYTE COUNT” value (2184 h, time 91 day) was 9.33 x10E6/uL and the HEMATOCRIT (2184 h, time 91 day) was 49.58%. The HEMOGLOBIN (2184 h, time 91 day) was 16.44 G/DL, the “LEUKOCYTE COUNT” value (2184 h, time 91 day) was 12.6 x10E3/uL and the LYMPHOCYTE (2184 h, time 91 day) was 82.74%. The “MEAN CORPUSCULAR HEMOGLOBIN” value (2184 h, time 91 day) was 17.63 pg, the “MEAN CORPUSCULAR HEMOGLOBIN CONCENTRATION” value (2184 h, time 91 day) was 33.15 G/DL and the “MEAN CORPUSCULAR VOLUME” value (2184 h, time 91 day) was 53.18 fL. The MONOCYTE (2184 h, time 91 day) was 1.38%, the NEUTROPHIL (2184 h, time 91 day) was 12.04% and the “PLATELET COUNT” value (2184 h, time 91 day) was 1261.8 x10E3/uL. For the same compound, the “ALANINE AMINOTRANSFERASE” value (2184 h, time 91 day) was 28.3 u/L, the ALBUMIN (2184 h, time 91 day) was 3.77 G/DL and the “ALKALINE PHOSPHATASE” value (2184 h, time 91 day) was 94.2 u/L. For the same compound, the “ASPARTATE AMINOTRANSFERASE” value (2184 h, time 91 day) was 64.7 u/L, the “BLOOD UREA NITROGEN” value (2184 h, time 91 day) was 15.9 mg/dL and the CHLORIDE (2184 h, time 91 day) was 103.2 MEQ/L. The CHOLESTEROL (2184 h, time 91 day) was 70.3 mg/dL, the “CREATINE PHOSPHOKINASE” value (2184 h, time 91 day) was 80.9 u/L and the CREATININE (2184 h, time 91 day) was 0.54 mg/dL. For the same compound, the GLUCOSE (2184 h, time 91 day) was 152 mg/dL, the “LACTATE DEHYDROGENASE” value (2184 h, time 91 day) was 46.3 u/L and the LIPASE (2184 h, time 91 day) was 18.7 u/L. The PHOSPHORUS (2184 h, time 91 day) was 8.35 mg/dL, the POTASSIUM (2184 h, time 91 day) was 6.21 MEQ/L and the SODIUM (2184 h, time 91 day) was 149.8 MEQ/L. The “TOTAL BILIRUBIN” value (2184 h, time 91 day) was 0.21 mg/dL, the “TOTAL PROTEIN” value (2184 h, time 91 day) was 7.38 G/DL and the “URIC ACID” value (2184 h, time 91 day) was 0.89 mg/dL. The ABSOLUTE BASOPHIL ([…], time 28 day) was 200 cells/µL, the ABSOLUTE EOSINOPHIL ([…], time 28 day) was 76 cells/µL and the ABSOLUTE LYMPHOCYTE ([…], time 28 day) was 13000 cells/µL. The ABSOLUTE MONOCYTE ([…], time 28 day) was 200 cells/µL, the ABSOLUTE SEGMENTED NEUTROPHIL ([…], time 28 day) was 1710 cells/µL and the BASOPHIL ([…], time 28 day) was 1.28%. For the same compound, the EOSINOPHIL ([…], time 28 day) was 0.48%, the “ERYTHROCYTE COUNT” value ([…], time 28 day) was 8.57 x10E6/uL and the HEMATOCRIT ([…], time 28 day) was 47.9%. For the same compound, the HEMOGLOBIN ([…], time 28 day) was 15.96 G/DL, the “LEUKOCYTE COUNT” value ([…], time 28 day) was 15.29 x10E3/uL and the LYMPHOCYTE ([…], time 28 day) was 85.76%. The “MEAN CORPUSCULAR HEMOGLOBIN” value ([…], time 28 day) was 18.62 pg, the “MEAN CORPUSCULAR HEMOGLOBIN CONCENTRATION” value ([…], time 28 day) was 33.3 G/DL and the “MEAN CORPUSCULAR VOLUME” value ([…], time 28 day) was 55.92 fL. For the same compound, the MONOCYTE ([…], time 28 day) was 1.36%, the NEUTROPHIL ([…], time 28 day) was 10.8% and the “PLATELET COUNT” value ([…], time 28 day) was 1456 x10E3/uL. The “ALANINE AMINOTRANSFERASE” value ([…], time 28 day) was 26.4 u/L, the ALBUMIN ([…], time 28 day) was 3.66 G/DL and the “ALKALINE PHOSPHATASE” value ([…], time 28 day) was 157.4 u/L. For the same compound, the “ASPARTATE AMINOTRANSFERASE” value ([…], time 28 day) was 65.6 u/L, the “BLOOD UREA NITROGEN” value ([…], time 28 day) was 13.6 mg/dL and the CHLORIDE ([…], time 28 day) was 104 MEQ/L. The CHOLESTEROL ([…], time 28 day) was 49.8 mg/dL, the “CREATINE PHOSPHOKINASE” value ([…], time 28 day) was 102 u/L and the CREATININE ([…], time 28 day) was 0.46 mg/dL. The GLUCOSE ([…], time 28 day) was 153.8 mg/dL, the “LACTATE DEHYDROGENASE” value ([…], time 28 day) was 60 u/L and the LIPASE ([…], time 28 day) was 19 u/L. It also gave a PHOSPHORUS ([…], time 28 day) of 9.14 mg/dL, a POTASSIUM ([…], time 28 day) of 5.7 MEQ/L and an SODIUM ([…], time 28 day) of 151 MEQ/L. The “TOTAL BILIRUBIN” value ([…], time 28 day) was 0.22 mg/dL, the “TOTAL PROTEIN” value ([…], time 28 day) was 6.76 G/DL and the “URIC ACID” value ([…], time 28 day) was 0.26 mg/dL.
